In patent publication US12611372B2, “Strain and use thereof” (LG HOUSEHOLD & HEALTH CARE LTD., priority 2021, dated 2026):
Blank lines part the entries; values can stand above or below the molecule they belong to.

Key:
Raw 264.7 cells = assay: NO production inhibitory ability, LPS-treated cells, NO assay kit; type: cell-based; settings: positive control, 20 μg/mL, LPS 1 μg/mL, 24 hours
Method: Raw 264.7 cells were diluted for each concentration, treated with 1 μg/mL of LPS, and cultured for 24 hours. The NO production inhibitory ability was evaluated as follows using a NO assay kit (Table 13).
The confirmation of skin soothing and inflammation improvement effects was performed in the same manner as in Example 6-1 (Table 14).

[1] = biological target: T1, TRPV1 (transient receptor potential vanilloid-1) (Homo sapiens, UniProt Q8NER1); assay: TRPV1 activity, calcium influx detection assay in HEK 293T-TRPV1 cells; type: cell-based; settings: untreated group 83.57
T1 construct: expressed in transfected cells; host or cells: HEK 293T-TRPV1 cells
T1 sequence (Q8NER1 whole entry, species assumed): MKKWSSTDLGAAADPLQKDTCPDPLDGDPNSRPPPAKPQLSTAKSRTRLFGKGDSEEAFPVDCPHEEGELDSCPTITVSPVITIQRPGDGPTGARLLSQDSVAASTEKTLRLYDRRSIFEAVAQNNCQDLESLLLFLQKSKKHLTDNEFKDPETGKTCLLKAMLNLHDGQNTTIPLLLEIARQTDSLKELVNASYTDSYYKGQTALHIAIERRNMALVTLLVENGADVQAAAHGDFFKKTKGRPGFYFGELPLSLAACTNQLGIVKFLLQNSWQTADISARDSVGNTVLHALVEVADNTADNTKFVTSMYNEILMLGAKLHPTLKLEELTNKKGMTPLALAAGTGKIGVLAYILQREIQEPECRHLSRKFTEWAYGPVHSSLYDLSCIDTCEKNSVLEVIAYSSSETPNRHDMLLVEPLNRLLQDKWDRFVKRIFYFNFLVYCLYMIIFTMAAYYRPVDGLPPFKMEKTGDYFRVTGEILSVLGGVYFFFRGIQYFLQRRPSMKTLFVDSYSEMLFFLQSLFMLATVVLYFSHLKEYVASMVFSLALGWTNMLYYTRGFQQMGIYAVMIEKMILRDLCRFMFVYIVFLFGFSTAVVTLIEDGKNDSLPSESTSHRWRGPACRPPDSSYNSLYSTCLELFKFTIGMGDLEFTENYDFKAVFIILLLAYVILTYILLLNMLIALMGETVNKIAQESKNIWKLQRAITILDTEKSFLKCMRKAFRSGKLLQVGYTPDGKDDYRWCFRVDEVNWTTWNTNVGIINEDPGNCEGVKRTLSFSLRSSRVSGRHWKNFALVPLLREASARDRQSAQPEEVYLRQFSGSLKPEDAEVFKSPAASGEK

[2] = DPPH free radical scavenging; type: biochemical; settings: 0.15 mM DPPH, room temperature, 30 minutes, absorbance at 540 nm
human dermal fibroblast = assay: Collagen synthesis rate, Procollagen Type I C-peptide (PIP) EIA kit; type: cell-based; settings: positive control, 48 hours
Method: Samples were treated with human dermal fibroblast for 48 hours at each concentration. The collagen synthesis rate was measured using a Procollagen Type I C-peptide (PIP) EIA kit. The collagen synthesis efficacy of the samples was calculated and measured as values in comparison with the negative control group (DMEM containing 0% serum).
In order to confirm the collagen synthesis enhancement effect of the Saccharomyces cerevisiae KCTC14779BP fermented product, the collagen synthesis rate was compared for normal cells, and normal cells treated with TGF-β, Saccharomyces cerevisiae KCTC14779BP fermented product, and normal yeast (Saccharomyces cerevisiae KCTC7296) fermented product (Table 3).
The confirmation of collagen synthesis enhancement effect was performed in the same manner as in Example 3-1, and the collagen synthesis rate was compared for normal cells, and normal cells treated with TGF-β, Saccharomyces cerevisiae KCTC14780BP fermented product, and fraction containing the yeast polypeptide (Table 4).
The confirmation of collagen synthesis enhancement effect was performed in the same manner as in Example 3-1, and the collagen synthesis rate was compared for normal cells, and normal cells treated with TGF-β, Lactobacillus fructivorans KCTC14776BP fermented product, and normal Lactobacillus (Lactobacillus plantarum KCTC3108) fermented product (Table 5).
The confirmation of collagen synthesis enhancement effect was performed in the same manner as in Example 3-1, and the collagen synthesis rate was compared for normal cells, and normal cells treated with TGF-β, Bacillus paramycoides KCTC14777BP fermented product, and normal Bacillus (Bacillus megaterium KCTC3007) fermented product (Table 6).

loricrin (LOR) = assay: Loricrin (LOR) gene expression in TNF-a-treated HaCaT cells, qPCR; type: cell-based, human; settings: Control: TNF-a 10 pg/mL alone; untreated group = 1
Method: After treating HaCaT cells with TNF-a (10 pg/mL) for 3 hours, samples were diluted for each concentration, mixed with TNF-a-treated HaCaT cells, and cultured for 24 hours. The degree of increase in the expression of loricrin (LOR), a major component of the skin barrier, was quantified using qPCR (Table 18).

human keratinocyte HaCaT = assay: Hyaluronic acid synthesis, Quantikine ELISA Hyaluronan; type: cell-based; settings: positive control, 1 ppm, 72 hours
Method: Samples were treated with human keratinocyte HaCaT for 72 hours at each concentration. Hyaluronic acid synthesis was compared with the control group (DMEM treatment containing 0% serum) using Quantikine ELISA Hyaluronan from R&D Systems to quantify the moisturizing ability (Table 7).
The confirmation of hyaluronic acid synthesis enhancement effect was performed in the same manner as in Example 4-1 (Table 8).
The confirmation of hyaluronic acid synthesis enhancement effect was performed in the same manner as in Example 4-1 (Table 9).
The confirmation of hyaluronic acid synthesis enhancement effect was performed in the same manner as in Example 4-1 (Table 10).
The confirmation of hyaluronic acid synthesis enhancement effect was performed in the same manner as in Example 4-1 (Table 11).

B16f10 melanocytes = assay: Melanin production inhibition; type: cell-based; settings: treatment concentration 0.02%; 72 hours
Method: Samples were diluted in B16f10 melanocytes at each concentration, treated for 72 hours, and cultured, and then, the amount of melanin pigment present in melanocytes was quantified. The melanin production inhibitory rate was calculated in comparison to the total protein amount, and the values thereof were measured as percentage (%) based on the DMSO control (DMEM containing 0% serum) set to 100%.
In order to measure the degree of decrease in the amount of melanin pigment in the Saccharomyces cerevisiae KCTC14780BP fermented product and the fraction containing the yeast polypeptide, the inhibition rate of melanin production was compared upon treatment with the positive control group (Arbutin 200 ppm (Lim Y. J. et al., 2009, Arch Pharm Res.)), the Saccharomyces cerevisiae KCTC14780BP fermented product and the fraction containing the yeast polypeptide (Table 15).

Molecule: CNC(=N)NCCC[C@H](N)C(=O)O [L-NMMA]
- NO production inhibitory ability (% of control) (Raw 264.7 cells; Table 13): 47.9 % of control
- NO production inhibitory ability (% of control) (Raw 264.7 cells; Table 14): 47.9 % of control

- TRPV1 Activity (RFU, relative fluorescent unit) ([1]; 10 μM, TRPV1 activity induction): 101.86 RFU
Molecule: COc1cc(CNC(=O)CCCC/C=C/C(C)C)ccc1O [Capsaicin]

- IC 50 (%) [2]: 0.000606 ± 0.00006%
Molecule: O=C1O[C@H]([C@@H](O)CO)C(O)=C1O [Vitamin C]

Molecule: TGF-β
- Collagen Synthesis Rate (% of control) (human dermal fibroblast; Table 3, 10 ppb, vs negative control (DMEM 0% serum)): 27.55 % of control
- Collagen Synthesis Rate (% of control) (human dermal fibroblast; Table 4, 10 ng/mL): 23.92 % of control
- Collagen Synthesis Rate (% of control) (human dermal fibroblast; Table 5, 10 ppb): 24.6 % of control
- Collagen Synthesis Rate (% of control) (human dermal fibroblast; Table 6, 10 ppb): 20.84 % of control

Molecule: TNF-a
- LOR Gene Expression (Relative mRNA level, of control) (loricrin (LOR)): 0.39

- TRPV1 Activity (RFU, relative fluorescent unit) ([1]; 3 μM, TRPV1 activity inhibition): 75.91 RFU
Molecule: Capsazepin

Molecule: CC1=C(/C=C/C(C)=C/C=C/C(C)=C/C(=O)O)C(C)(C)CCC1 [Retinoic acid]
- Hyaluronic Acid Synthesis Rate (% of control) (human keratinocyte HaCaT; Table 7): 13.6 % of control
- Hyaluronic Acid Synthesis Rate (% of control) (human keratinocyte HaCaT; Table 8): 17.8 % of control
- Hyaluronic Acid Synthesis Rate (% of control) (human keratinocyte HaCaT; Table 9): 27.6 % of control
- Hyaluronic Acid Synthesis Rate (% of control) (human keratinocyte HaCaT; Table 10): 22.0 % of control
- Hyaluronic Acid Synthesis Rate (% of control) (human keratinocyte HaCaT; Table 11): 15.4 % of control

Molecule: OC[C@H]1O[C@@H](Oc2ccc(O)cc2)[C@H](O)[C@@H](O)[C@@H]1O [Arbutin]
- Melanin Production Inhibition (%) (B16f10 melanocytes): 56.4%
